Data from patent publication US12466839B2, “Allosteric AKT inhibitors for use in the treatment of Hereditary Hemorrhagic Telangiectasia” (VADERIS THERAPEUTICS AG, priority 2020, dated 2025).

What was measured:
5-HT2B = target: T1, 5-HT2B (Homo sapiens, UniProt P41595); assay: Millipore Drug Discovery Safety and Liability Panel; format: cell-based
T1 construct: purchased Millipore

V2 = target: T2, V2 (Homo sapiens, UniProt P30518); assay: as above; format: cell-based
T2 construct: Millipore

AKT3 = AKT3 (Homo sapiens, UniProt Q9Y243); assay: Panel of 450 kinases; format: biochemical
PRP = target: T3, PRP (Homo sapiens, UniProt P49683); assay: Millipore Drug Discovery Safety and Liability Panel; format: cell-based
T3 construct: Millipore

PAF = target: T4, PAF (Homo sapiens, UniProt P25105); assay: as above; format: cell-based
T4 construct: Millipore

full length AKT1 = full length AKT1 (Homo sapiens, UniProt P31749); assay: Biochemical kinase assay
A2A = target: T5, A2A (Homo sapiens, UniProt P29274); assay: Millipore Drug Discovery Safety and Liability Panel; format: cell-based
T5 construct: purchased Millipore

D1 = target: T6, D1 (Homo sapiens, UniProt P21728); assay: as above; format: cell-based
T6 construct: purchased Millipore

GPR109A = target: T7, GPR109A (Homo sapiens, UniProt Q8TDS4); assay: as above; format: cell-based
T7 construct: purchased Millipore

MC5 = target: T8, MC5 (Homo sapiens, UniProt P33032); assay: as above; format: cell-based
T8 construct: purchased Millipore

OPRD1 = target: T9, OPRD1 (Homo sapiens, UniProt P41143); assay: as above; format: cell-based
T9 construct: Millipore

LPA1 = target: T10, LPA1 (Homo sapiens, UniProt Q92633); assay: as above; format: cell-based
T10 construct: purchased Millipore

AKT = AKT inhibition in primary lung endothelial cells with complete loss of Eng expression (western blot); format: cell-based; conditions: Endothelial cell; lung mouse endothelial cells with complete loss of Eng expression; VEGF-A stimulation
Kv1.5 = Kv1.5 (Homo sapiens, UniProt P22460); assay: Cardiac ion channel profile; format: cell-based
ADRB1 = target: T11, ADRB1 (Homo sapiens, UniProt P08588); assay: Millipore Drug Discovery Safety and Liability Panel; format: cell-based
T11 construct: purchased Millipore

CGRP1 = target: T12, CGRP1 (Homo sapiens, UniProt O60894+Q16602); assay: as above; format: cell-based
T12 construct: purchased Millipore

[1] = read-out: AGONIST mean % increase in activity
[2] = read-out: ANTAGONIST mean % inhibition

T11 sequence (P08588 whole entry): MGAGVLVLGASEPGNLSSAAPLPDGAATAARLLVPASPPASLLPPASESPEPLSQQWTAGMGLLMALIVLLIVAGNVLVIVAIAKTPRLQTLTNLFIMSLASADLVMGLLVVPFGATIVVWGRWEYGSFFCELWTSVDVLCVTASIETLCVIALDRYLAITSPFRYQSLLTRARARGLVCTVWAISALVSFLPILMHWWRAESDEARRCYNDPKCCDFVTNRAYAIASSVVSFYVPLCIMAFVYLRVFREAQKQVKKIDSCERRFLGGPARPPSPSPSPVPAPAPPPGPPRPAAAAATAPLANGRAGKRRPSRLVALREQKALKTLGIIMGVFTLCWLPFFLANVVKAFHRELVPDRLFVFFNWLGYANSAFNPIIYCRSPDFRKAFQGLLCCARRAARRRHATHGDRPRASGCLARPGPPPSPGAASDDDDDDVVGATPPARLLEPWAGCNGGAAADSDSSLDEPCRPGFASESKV
T12 sequence (Q16602 23-461): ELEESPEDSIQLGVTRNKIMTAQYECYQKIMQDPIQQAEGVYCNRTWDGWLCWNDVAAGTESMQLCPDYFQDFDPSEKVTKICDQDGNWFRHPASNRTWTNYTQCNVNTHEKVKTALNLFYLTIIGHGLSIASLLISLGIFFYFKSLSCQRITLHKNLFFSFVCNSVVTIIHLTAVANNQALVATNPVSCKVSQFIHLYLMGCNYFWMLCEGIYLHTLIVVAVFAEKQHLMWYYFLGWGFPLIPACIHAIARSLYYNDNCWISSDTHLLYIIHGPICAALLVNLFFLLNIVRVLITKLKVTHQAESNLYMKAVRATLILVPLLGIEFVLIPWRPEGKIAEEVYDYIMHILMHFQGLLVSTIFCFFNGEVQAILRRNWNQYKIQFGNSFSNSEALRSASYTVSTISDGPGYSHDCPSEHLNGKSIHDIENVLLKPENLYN
T12 sequence (O60894 27-148 partner): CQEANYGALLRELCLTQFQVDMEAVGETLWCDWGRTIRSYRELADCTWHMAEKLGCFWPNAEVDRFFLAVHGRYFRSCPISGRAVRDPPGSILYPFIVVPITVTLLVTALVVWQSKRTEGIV
T5 sequence (P29274 whole entry): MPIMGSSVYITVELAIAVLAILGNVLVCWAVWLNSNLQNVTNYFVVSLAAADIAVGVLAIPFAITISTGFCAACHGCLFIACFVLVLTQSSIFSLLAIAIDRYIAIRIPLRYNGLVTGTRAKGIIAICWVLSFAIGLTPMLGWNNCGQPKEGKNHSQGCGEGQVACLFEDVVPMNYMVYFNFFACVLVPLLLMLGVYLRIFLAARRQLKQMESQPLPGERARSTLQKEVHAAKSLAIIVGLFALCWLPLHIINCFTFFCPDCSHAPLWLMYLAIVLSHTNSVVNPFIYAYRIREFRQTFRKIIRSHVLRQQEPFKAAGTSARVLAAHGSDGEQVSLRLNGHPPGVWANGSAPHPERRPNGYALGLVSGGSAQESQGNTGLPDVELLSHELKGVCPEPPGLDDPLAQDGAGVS
T7 sequence (Q8TDS4 whole entry, species assumed): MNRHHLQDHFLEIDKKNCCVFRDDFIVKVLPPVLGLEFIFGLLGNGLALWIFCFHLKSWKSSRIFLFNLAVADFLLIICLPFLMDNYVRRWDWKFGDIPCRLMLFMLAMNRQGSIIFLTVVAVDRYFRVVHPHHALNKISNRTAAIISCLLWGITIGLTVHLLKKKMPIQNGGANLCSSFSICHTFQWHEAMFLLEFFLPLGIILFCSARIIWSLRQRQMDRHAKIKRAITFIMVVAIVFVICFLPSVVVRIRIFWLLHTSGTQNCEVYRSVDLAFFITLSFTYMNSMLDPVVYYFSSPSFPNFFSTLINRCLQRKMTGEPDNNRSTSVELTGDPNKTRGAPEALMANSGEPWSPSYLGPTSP
T10 sequence (Q92633 whole entry, species assumed): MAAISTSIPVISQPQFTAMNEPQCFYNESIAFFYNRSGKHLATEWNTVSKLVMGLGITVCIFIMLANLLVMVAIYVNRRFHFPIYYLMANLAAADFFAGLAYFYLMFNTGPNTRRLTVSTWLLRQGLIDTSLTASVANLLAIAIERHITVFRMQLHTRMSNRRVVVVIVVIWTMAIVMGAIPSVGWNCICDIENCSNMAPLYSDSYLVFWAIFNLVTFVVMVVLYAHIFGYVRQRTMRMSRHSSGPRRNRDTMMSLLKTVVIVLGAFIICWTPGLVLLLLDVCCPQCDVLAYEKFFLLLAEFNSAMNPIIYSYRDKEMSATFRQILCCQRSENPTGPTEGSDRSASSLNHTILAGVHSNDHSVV
T9 sequence (P41143 whole entry, species assumed): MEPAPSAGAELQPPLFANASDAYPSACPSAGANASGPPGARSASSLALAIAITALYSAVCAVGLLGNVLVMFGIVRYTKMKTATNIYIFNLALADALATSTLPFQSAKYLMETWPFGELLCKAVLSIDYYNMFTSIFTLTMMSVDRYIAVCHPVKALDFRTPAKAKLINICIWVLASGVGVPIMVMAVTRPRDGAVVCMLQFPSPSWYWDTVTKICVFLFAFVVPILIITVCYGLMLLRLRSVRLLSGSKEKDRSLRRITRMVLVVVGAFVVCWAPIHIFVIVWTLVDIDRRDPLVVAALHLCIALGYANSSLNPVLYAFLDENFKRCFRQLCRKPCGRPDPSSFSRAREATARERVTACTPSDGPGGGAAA
T2 sequence (P30518 whole entry): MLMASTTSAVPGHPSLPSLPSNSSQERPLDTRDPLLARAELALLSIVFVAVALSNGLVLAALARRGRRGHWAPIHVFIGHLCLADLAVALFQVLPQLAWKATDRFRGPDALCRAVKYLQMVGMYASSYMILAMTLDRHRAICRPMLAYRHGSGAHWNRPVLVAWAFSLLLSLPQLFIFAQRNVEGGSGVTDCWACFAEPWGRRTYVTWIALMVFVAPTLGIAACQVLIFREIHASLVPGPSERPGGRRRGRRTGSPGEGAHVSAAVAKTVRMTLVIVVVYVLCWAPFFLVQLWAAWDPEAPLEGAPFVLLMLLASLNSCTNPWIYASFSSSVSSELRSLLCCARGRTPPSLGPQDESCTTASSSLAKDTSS
T3 sequence (P49683 whole entry): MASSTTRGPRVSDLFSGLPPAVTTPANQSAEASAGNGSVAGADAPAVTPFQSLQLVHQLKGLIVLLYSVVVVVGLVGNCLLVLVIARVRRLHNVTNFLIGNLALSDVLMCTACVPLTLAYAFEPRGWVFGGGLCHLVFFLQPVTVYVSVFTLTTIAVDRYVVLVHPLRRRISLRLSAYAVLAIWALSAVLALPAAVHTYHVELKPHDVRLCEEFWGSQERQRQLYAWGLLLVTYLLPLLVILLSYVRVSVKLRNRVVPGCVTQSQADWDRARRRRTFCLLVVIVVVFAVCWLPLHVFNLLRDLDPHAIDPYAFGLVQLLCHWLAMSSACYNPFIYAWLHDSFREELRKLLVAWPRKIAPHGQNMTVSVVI
T6 sequence (P21728 whole entry): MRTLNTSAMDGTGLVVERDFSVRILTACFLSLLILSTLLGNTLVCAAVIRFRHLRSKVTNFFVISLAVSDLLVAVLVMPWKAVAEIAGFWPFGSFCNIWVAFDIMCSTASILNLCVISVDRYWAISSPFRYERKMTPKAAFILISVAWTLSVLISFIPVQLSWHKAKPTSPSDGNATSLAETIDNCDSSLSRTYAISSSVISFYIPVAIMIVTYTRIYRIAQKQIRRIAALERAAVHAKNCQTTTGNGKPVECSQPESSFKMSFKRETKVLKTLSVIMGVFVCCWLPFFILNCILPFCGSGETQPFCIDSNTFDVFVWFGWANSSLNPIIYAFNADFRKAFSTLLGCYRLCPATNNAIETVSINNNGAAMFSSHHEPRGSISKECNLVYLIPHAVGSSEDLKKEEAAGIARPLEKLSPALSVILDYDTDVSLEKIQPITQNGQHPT
T8 sequence (P33032 whole entry): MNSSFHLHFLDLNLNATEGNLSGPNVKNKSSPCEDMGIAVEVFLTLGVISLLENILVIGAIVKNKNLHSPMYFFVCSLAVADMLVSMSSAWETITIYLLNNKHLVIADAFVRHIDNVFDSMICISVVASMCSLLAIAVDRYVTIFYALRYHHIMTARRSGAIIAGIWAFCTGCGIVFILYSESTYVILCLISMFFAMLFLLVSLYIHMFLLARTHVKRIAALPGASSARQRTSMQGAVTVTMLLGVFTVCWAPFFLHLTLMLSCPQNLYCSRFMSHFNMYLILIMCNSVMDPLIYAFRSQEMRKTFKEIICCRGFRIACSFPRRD
T1 sequence (P41595 whole entry, species assumed): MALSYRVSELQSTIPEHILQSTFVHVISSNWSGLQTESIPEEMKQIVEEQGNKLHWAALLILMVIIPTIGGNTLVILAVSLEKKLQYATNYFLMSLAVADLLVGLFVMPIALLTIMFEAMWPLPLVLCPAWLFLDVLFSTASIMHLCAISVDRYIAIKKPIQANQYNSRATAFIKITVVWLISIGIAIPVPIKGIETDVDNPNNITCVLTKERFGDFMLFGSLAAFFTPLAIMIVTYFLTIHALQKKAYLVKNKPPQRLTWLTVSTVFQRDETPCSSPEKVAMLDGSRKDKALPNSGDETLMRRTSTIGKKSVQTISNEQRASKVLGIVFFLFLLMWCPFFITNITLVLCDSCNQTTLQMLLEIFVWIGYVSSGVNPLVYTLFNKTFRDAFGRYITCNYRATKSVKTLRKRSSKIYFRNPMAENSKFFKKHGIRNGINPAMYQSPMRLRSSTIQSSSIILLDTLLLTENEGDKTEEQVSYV
T4 sequence (P25105 whole entry): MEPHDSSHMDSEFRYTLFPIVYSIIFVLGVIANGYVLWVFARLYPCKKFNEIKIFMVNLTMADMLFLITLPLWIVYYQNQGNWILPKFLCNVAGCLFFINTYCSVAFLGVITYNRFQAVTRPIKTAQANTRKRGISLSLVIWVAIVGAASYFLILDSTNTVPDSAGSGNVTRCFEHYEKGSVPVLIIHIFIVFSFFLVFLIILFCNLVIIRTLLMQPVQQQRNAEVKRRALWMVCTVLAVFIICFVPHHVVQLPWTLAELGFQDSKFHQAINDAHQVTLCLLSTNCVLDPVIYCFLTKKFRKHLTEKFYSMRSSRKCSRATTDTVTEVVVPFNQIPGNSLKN

For `CCN1C(=O)COc2nc(-c3ccc(C4(N)CC(O)C4)cc3)c(-c3ccccc3)cc21.O=C(O)C(O)C(O)C(=O)O` [VAD044, 6-(4-(1-amino-3-hydroxycyclobutyl)phenyl)-1-ethyl-7-phenyl-1H-pyrido[2,3-b][1,4]oxazin-2(3H)-one L-tartrate], the activation at 10 µM (5-HT2B; [1]) was 3.7%, the inhibition at 10 µM (5-HT2B; [2]) was 7.6% and the activation at 10 µM (V2; [1]) was -1.5%. For the same molecule, the inhibition at 10 µM (V2; [2]) was 22.8%, the inhibition at 10 µM (AKT3) was 72% and the activation at 10 µM (PRP; [1]) was -0.5%. The inhibition at 10 µM (PRP; [2]) was 23.2%, the activation at 10 µM (PAF; [1]) was -0.9% and the inhibition at 10 µM (PAF; [2]) was 21%. The IC50 (full length AKT1) was 125 nM, the “AGONIST mean % increase in activity” value (A2A; A2A, 10 μM) was 2.3% and the inhibition at 10 µM (A2A; [2]) was 12.5%. It also gave an activation at 10 µM (D1; D1, 10 μM, read-out: AGONIST mean % increase in activity) of 1.5%, an inhibition at 10 µM (D1; [2]) of 18.7% and an activation at 10 µM (GPR109A; GPR109A, 10 μM, read-out: AGONIST mean % increase in activity) of -0.7%. For the same molecule, the inhibition at 10 µM (GPR109A; [2]) was 3.1%, the activation at 10 µM (MC5; MC5, 10 μM, read-out: AGONIST mean % increase in activity) was -0.2% and the inhibition at 10 µM (MC5; [2]) was 8.4%. For the same molecule, the activation at 10 µM (OPRD1; OPRD1, 10 μM, read-out: AGONIST mean % increase in activity) was -0.9%, the inhibition at 10 µM (OPRD1; [2]) was 2.8% and the activation at 10 µM (LPA1; [1]) was -1.3%. For the same molecule, the inhibition at 10 µM (LPA1; [2]) was 57.4%, the IC50 (AKT) was 93 nM and the inhibition at 10 µM (Kv1.5) was less than 25%. It also gave an activation at 10 µM (ADRB1; ADRB1, 10 μM, read-out: AGONIST mean % increase in activity) of -0.1%, an inhibition at 10 µM (ADRB1; [2]) of 4.2% and an activation at 10 µM (CGRP1; CGRP1, 10 μM, read-out: AGONIST mean % increase in activity) of -0.1%. For the same molecule, the inhibition at 10 µM (CGRP1; [2]) was -7.9%.
